The test system of data set [1] is Tra2β. Put plainly: Immunoblot of Tra2β in HeLa rtTA-HIV-ΔMls cells. In kind it is cell-based, human. The following applies: 3 d with ~IC50s of CSs. From the text:
Figure 4 CSs suppress HIV-1 gene expression by altering viral RNA processing. […] (a,b) CSs induce oversplicing of HIV-1 RNAs (n ≥ 3, mean, s.e.m.). (a) Diagram of the primer positions (arrow heads) used for qRT-PCR. (b) Graph of the relative amount of US (black), SS (white), and MS (gray) HIV-1 RNAs in cells treated with various CSs. (c) Nuclear export of HIV-1 US RNAs in cells is altered by CSs (representative n ≥ 4). HIV-1 US RNAs were localized by FISH after treating HeLa rtTA-HIV(Gag-GFP) cells as described above but with ~IC90s of CSs. Nuclei were stained by DAPI and images captured at 630 × magnification. […] SRp20, Tra2β, and tubulin were analyzed by immunoblot of HeLa rtTA-HIV-ΔMls cells treated as described above except cells of this representative blot were treated 3 d with ~IC50s of CSs. […]
To monitor HIV-1 gene expression or replication, Gag release into cell culture supernatants were assayed by ELISA using a p24^CA antigen capture assay kit (AIDS & Cancer Virus Program, NCI-Frederick, Frederick, MD USA). […] For analysis of HIV-1 and SR protein expression (and phosphorylation states with calf intestinal alkaline phosphatase treatments), cells were lysed and analyzed by western blot as previously outlined. […] Activation of MAPKs was determined by western blot quantitation and calculation of phospho/total protein levels. […]

Data set [2] concerns HeLa rtTA-HIV-ΔMls cells. It is filed as cell-based, human. The following applies: XTT. Here is the method: Drug/compounds were tested for effects on HIV-1 gene expression using inducible Tet-ON HIV-1 cell lines [HeLa rtTA-HIV-ΔMls or rtTA-HIV(Gag-GFP)] containing a HIV-1 (LAI) provirus activatable by Dox or tetracycline transactivator (tTA)[69]. The rtTA-HIV-ΔMls provirus was modified and used as previously reported[9]–[11],[70]. The rtTA-HIV(Gag-GFP) provirus was generated by deletion of the PR and RT coding regions within pol and insertion of GFP to the 3′ of gag, creating GFP fused to the C-terminal of Gag. After 4 h of drug/compound treatment, HIV-1 gene expression was activated with Dox (2 μg/mL) or tTA (described below). Equal concentrations of DMSO were present in each experiment. After ~20 h, cells and media were harvested to monitor the effects of drug/compound treatments as described below. HIV-1 gene expression was quantified via p24^CA ELISA or monitoring Gag-GFP fluorescence in cells as described below. In parallel, cell viability of treatments were assessed by XTT assay (Sigma-Aldrich, #TOX2). For confirmatory tests, the CD4^+ HIV-1 T-cell line, 24ST1NLESG, from J. Dougherty, was treated with drug/compounds and HIV-1 gene expression activated by 1.8 µM of phorbol 12-myristate 13-acetate (PMA) as previously described[10],[11],[71].
Supplementary Figure S2. CSs inhibit HIV-1 gene expression in a dose-dependent manner. […]
(Tetrazolium assays rely on reduction of a dye to a coloured formazan, in cell work by metabolically active cells.)

We go through 3 molecules from article PMC5770468, “Cardiac glycoside/aglycones inhibit HIV-1 gene expression by a mechanism requiring MEK1/2-ERK1/2 signaling” (Scientific Reports, 2018).

As for `C[C@]12CC[C@H](O)C[C@H]1CC[C@@H]1[C@@H]2CC[C@]2(C)[C@@H](C3=CC(=O)OC3)CC[C@]12O` [Digitoxigenin], in data set [1], the “abundance of a modified species of Tra2β” value was “no effect”. For the same molecule, the toxicity entry in data set [2] (at 1000 nM) is on record as “no toxicity”.
For `C[C@]12CC[C@H](O)C[C@H]1CC[C@@H]1[C@@H]2C[C@@H](O)[C@]2(C)[C@@H](C3=CC(=O)OC3)CC[C@]12O` [Digoxigenin], in data set [2], the “CC20 (cytotoxic effects ≥20%)” value amounted to 0.6 µM.
As for `CC(=O)O[C@H]1C[C@H](O[C@H]2[C@@H](O)C[C@H](O[C@H]3[C@@H](O)C[C@H](O[C@H]4CC[C@@]5(C)[C@H](CC[C@@H]6[C@@H]5C[C@@H](O)[C@]5(C)[C@@H](C7=CC(=O)OC7)CC[C@]65O)C4)O[C@@H]3C)O[C@@H]2C)O[C@H](C)[C@H]1O[C@@H]1O[C@H](CO)[C@@H](O)[C@H](O)[C@H]1O` [Lanatoside C], the “abundance of a modified species of Tra2β” value in data set [1] is reported as “no effect”.
